Experimental findings from patent US9138434B2, “Octahydrothienoquinoline derivative, pharmaceutical composition comprising derivative, and use of these” (KISSEI PHARMACEUTICAL CO., LTD., priority 2011, dated 2015) are described below.

In the assay the test system is unilateral 6-OHDA-lesioned hemi-Parkinsonian rats. Description: Contralateral rotational behavior in unilateral 6-hydroxydopamine-lesioned hemi-parkinsonian rats. It counts as in vivo, rat (male Sprague-Dawley). To be noted: 10 mg/kg oral, fasted rats, observed up to 24 hours, mean; for Total number or rotations: contralateral rotations; for Duration: duration of contralateral rotation response. How it is done:
6-OHDA was dissolved at 2 mg/mL in a physiolosical saline solution containing 0.2% L-ascorbic acid. Desipramine was dissolved at 10 mg/mL in a physiolosical saline solution in a hot-water bath. Apomorphine was dissolved at 0.1 mg/mL in a physiolosical saline solution. […] Test compounds were dissolved in a solution containing 2% DMA, 100 or 200 mol % hydrochloric acid, and 98% of a 0.5% methyl cellulose solution. […] (Eur J Pharmacol, 2000, vol. 408, P. 249-255) with a minor modification. Male Sprague-Dawley rats (6-weeks-old, Charles River Laboratories Japan Inc.) were anaesthetized with intraperitoneal somnopentyl (45 mg/kg) injection and placed in a stereotaxic frame (Narishige). In order to prevent 6-OHDA-induced damage of noradrenergic neurons, desipramine (25 mg/kg) was intraperitoneally injected 30 minutes before the 6-OHDA injection. After the bregma identification via a middle calvarial incision, the skull was drilled using a dental drill at the site of 6-OHDA injection. The lesion was made by injecting 6-OHDA (8 μg in 4 μL at a speed of 1 μL/minute) unilaterally into the left medial forebrain bundle by using a injection cannula (30 gauge needle) connected to a microsyringe (Hamilton) (the lesion coordinates; A/P −2.5 mm, L/M −1.8 mm, and V/D −8.0 mm, from the bregma point and surface of the skull). The cannula was carefully removed from the animal after keeping placed on the lesion site for 5 minutes. The skull was filled its hole with dental cement, disinfected, and the scalp incision was surgically sutured. Animals recovered from anesthesia were housed as usual until the day of the experiment. 3) Determining of Contralateral Rotational Behavior Three weeks after the lesion, rats were tested on the basis of their contralateral rotational behavior (single rotation was defined as a 360° turn) in response to 0.1 mg/kg apomorphine given subcutaneously. For behavioral observation, rats were placed in plastic cylinders of a diameter of 30 cm, and its contralateral rotational behaviors were videotaped and quantified by rat-rotation auto counting system R-RACS (Kissei Wellcom). On the experimental day, animals were fasted overnight, and test compounds were orally administrated at doses of 10 mg/kg. […] Total number of rotations and the duration of the response in experimental period were presented as mean value.

Turning to `CCCCN(C(=O)NCCN(C)C)C(=O)[C@@H]1C[C@@H]2Cc3c(sc(N)c3C#N)C[C@H]2N(C)C1` (relative stereo) [1-24, 1-{[(4aR*,6R*,8aR*)-2-amino-3-cyano-8-methyl-4H,4aH,5H,6H,7H,8H,8aH,9H-thieno[3,2-g]quinolin-6-yl]carbonyl}-1-butyl-3-[2-(dimethylamino)ethyl]urea], the “Total number or rotations” value was found to be 5230.0 and the Duration was 766.3 min.

On to `CC(C)CCN(C(=O)NCCN(C)C)C(=O)[C@@H]1C[C@@H]2Cc3c(sc(N)c3C#N)C[C@H]2N(C)C1` (relative stereo) [1-43, 1-{[(4aR*,6R*,8aR*)-2-amino-3-cyano-8-methyl-4H,4aH,5H,6H,7H,8H,8aH,9H-thieno[3,2-g]quinolin-6-yl]carbonyl}-3-[2-(dimethylamino)ethyl]-1-(3-methylbutyl)urea], for which the “Total number or rotations” value was determined as 7557.5 and the Duration was 843.8 min.

For the compound `CCCCN(C(=O)NCCN1CCCCC1)C(=O)[C@@H]1C[C@@H]2Cc3c(sc(N)c3C#N)C[C@H]2N(C)C1` (relative stereo) [1-46, 1-{[(4aR*,6R*,8aR*)-2-amino-3-cyano-8-methyl-4H,4aH,5H,6H,7H,8H,8aH,9H-thieno[3,2-g]quinolin-6-yl]carbonyl}-1-butyl-3-[2-(piperidin-1-yl)ethyl]urea], the “Total number or rotations” value was 10329.8 and the Duration came out at 1158.8 min.

Turning to `CCCN(C(=O)NCCN(C)C)C(=O)[C@@H]1C[C@@H]2Cc3c(sc(N)c3C#N)C[C@H]2N(C)C1` [1-1, 1-{[(4aR,6R,8aR)-2-amino-3-cyano-8-methyl-4H,4aH,5H, 6H,7H,8H,8aH,9H-thieno[3,2-g]quinolin-6-yl]carbonyl}-3-[2-(dimethylamino)ethyl]-1-propylurea], the “Total number or rotations” value was 9431.8 and the Duration turned out to be 1101.3 min.

For the compound `CCCCN(C(=O)NCCN(CC)CC)C(=O)[C@@H]1C[C@@H]2Cc3c(sc(N)c3C#N)C[C@H]2N(C)C1` [1-3, 1-{[(4aR,6R,8aR)-2-amino-3-cyano-8-methyl-4H,4aH,5H,6H,7H,8H,8aH,9H-thieno[3,2-g]quinolin-6-yl]carbonyl}-1-butyl-3-[2-(diethylamino)ethyl]urea], the “Total number or rotations” value is 4478.3 and the Duration was 845.0 min.

Consider `CCN(C(=O)NCC(C)(C)CN(C)C)C(=O)[C@@H]1C[C@@H]2Cc3c(sc(N)c3C#N)C[C@H]2N(C)C1` [1-4, 1-{[(4aR,6R,8aR)-2-amino-3-cyano-8-methyl-4H,4aH,5H,6H,7H,8H,8aH,9H-thieno[3,2-g]quinolin-6-yl]carbonyl}-3-[3-(dimethylamino)-2,2-dimethylpropyl]-1-ethlylurea], for which the “Total number or rotations” value stood at 6338.8 and the Duration was determined as 1131.3 min.

In the case of `CCN(C(=O)N[C@@H](C)CN(C)C)C(=O)[C@@H]1C[C@@H]2Cc3c(sc(N)c3C#N)C[C@H]2N(C)C1` [1-57, 1-{[(4aR,6R,8aR)-2-amino-3-cyano-8-methyl-4H,4aH,5H,6H, 7H,8H,8aH,9H-thieno[3,2-g]quinolin-6-yl]carbonyl}-3-[(2S)-1-(dimethylamino)propan-2-yl]-1-ethylurea], the “Total number or rotations” value is 9976.5 and the Duration turned out to be 1190.0 min.

With `CCN(C(=O)NCCN(C)C)C(=O)[C@@H]1C[C@@H]2Cc3c(sc(N)c3C#N)C[C@H]2N(C)C1` [1-108, 1-{[(4aR,6R,8aR)-2-amino-3-cyano-8-methyl-4H,4aH,5H,6H,7H,8H,8aH,9H-thieno[3,2-g]quinolin-6-yl]carbonyl}-3-[2-(dimethylamino)ethyl]-1-ethylurea], the “Total number or rotations” value came out at 2577.5 and the Duration stood at 698.8 min.

In the case of `CCCN(CCC)CCc1cccc2c1CC(=O)N2` [Ropinirole, ropinirole, reference compound], the “Total number or rotations” value worked out at 276.3 and the Duration amounted to 61.3 min.
